Experimental data reported in patent publication US7384931B2, “Constrained compounds as CGRP-receptor antagonists” (Bristol-Myers Squibb Company, priority 2004, dated 2008).

molecular target: CGRP receptor (Homo sapiens, UniProt O60894+Q16602); experiment: CGRP radioligand binding assay ([125I]-CGRP displacement, SK-N-MC homogenate); parameters: endogenous in cells; host or cells: SK-N-MC cells (homogenate/membrane pellet); conditions: displacement of [125I]-CGRP, room temperature 2 h
Method: CGRP Binding Assay. Tissue Culture. SK—N-MC cells were grown at 37° C. in 5% CO2 as a monolayer in medium consisting of MEM with Earle's salts and L-glutamine (Gibco) supplemented with 10% fetal bovine serum (Gibco). Cell Pellets. The cells were rinsed twice with phosphate-buffered saline (155 mM NaCl, 3.3 mM Na2HPO4, 1.1 mM KH2PO4, pH 7.4), and incubated for 5-10 min. at 4° C. in hypotonic lysis buffer consisting of 10 mM Tris (pH 7.4) and 5 mM EDTA. The cells were transferred from plates to polypropylene tubes (16×100 mm) and homogenized using a polytron. Homogenates were centrifuged at 32,000×g for 30 min. The pellets were resuspended in cold hypotonic lysis buffer with 0.1% mammalian protease inhibitor cocktail (Sigma) and assayed for protein concentration. The SK—N-MC homogenate was then aliquoted and stored at −80° C. until needed.
Radioligand Binding Assay. The compounds of invention were solubilized and carried through serial dilutions using 100% DMSO. Aliquots from the compound serial dilutions were further diluted 25 fold into assay buffer (50 mM Tris-Cl pH 7.5, 5 mM MgCl2, 0.005% Triton X-100) and transferred (volume 50 μl) into 96 well assay plates. [^125I]-CGRP (Amersham Biosciences) was diluted to 60 pM in assay buffer and a volume of 50 μl was added to each well. SK—N-MC pellets were thawed, diluted in assay buffer with fresh 0.1% mammalian protease inhibitor cocktail (Sigma), and homogenized again. SK—N-MC homogenate (5 μg/well) was added in a volume of 100 μl. The assay plates were then incubated at room temperature for 2 h. Assays were stopped by addition of excess cold wash buffer (20 mM Tris-Cl pH 7.5, 0.1% BSA) immediately followed by filtration over glass fiber filters (Whatman GF/B) previously soaked in 0.5% PEI. Non-specific binding was defined with 1 μM beta-CGRP. Protein bound radioactivity was determined using a gamma or scintillation counter. The IC50 was defined as the concentration of a compound of invention required to displace 50% of radioligand binding.

Chain of CGRP receptor (Q16602 23-461): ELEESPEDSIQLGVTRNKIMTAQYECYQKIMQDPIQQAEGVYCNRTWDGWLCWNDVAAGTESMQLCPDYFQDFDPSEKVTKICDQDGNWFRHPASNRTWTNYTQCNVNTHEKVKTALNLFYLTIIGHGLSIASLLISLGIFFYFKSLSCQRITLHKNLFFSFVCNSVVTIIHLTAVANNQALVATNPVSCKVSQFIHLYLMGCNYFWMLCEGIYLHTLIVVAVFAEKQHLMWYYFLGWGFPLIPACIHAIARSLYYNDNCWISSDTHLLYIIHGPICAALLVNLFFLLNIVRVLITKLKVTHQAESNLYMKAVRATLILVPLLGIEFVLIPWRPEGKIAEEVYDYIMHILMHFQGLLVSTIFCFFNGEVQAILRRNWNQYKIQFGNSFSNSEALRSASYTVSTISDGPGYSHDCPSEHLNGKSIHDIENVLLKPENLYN
Chain of CGRP receptor (O60894 27-148): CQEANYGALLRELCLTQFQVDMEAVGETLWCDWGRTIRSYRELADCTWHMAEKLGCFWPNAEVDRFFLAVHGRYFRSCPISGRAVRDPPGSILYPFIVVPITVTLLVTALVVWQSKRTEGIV

Row | SMILES | IC50
1 | O=C(C[C@@H]1Cc2cc(Cl)c3[nH]ncc3c2CN(Cc2ccncc2)C1=O)N1CCC(c2ccc(-c3ccccc3)c[n+]2[O-])CC1 [Example 83, (S)-1-[[(7S)-4-chloro-3,6,7,8,9,10-hexahydro-8-oxo-9-(4-pyridinylmethyl)azepino[3,4-e]indazol-7-yl]acetyl]-4-(1-oxido-5-phenyl-2-pyridinyl)-piperidine] | 100 to 1000 nM
2 | CC(C)(C)CN1Cc2c(cc(Cl)c3[nH]ncc23)C[C@@H](CC(=O)N2CCC(c3ccc(-c4ccccc4)c[n+]3[O-])CC2)C1=O [Example 84, (S)-1-[[(7S)-4-chloro-9-(2,2-dimethylpropyl)-3,6,7,8,9,10-hexahydro-8-oxoazepino[3,4-e]indazol-7-yl]acetyl]-4-(1-oxido-5-phenyl-2-pyridinyl)-piperidine] | 100 to 1000 nM
3 | CC(C)(C)CN1Cc2c(ccc3[nH]ncc23)CC(N/C(=N/C#N)N2CCC(N3Cc4ccccc4NC3=O)CC2)C1=O (stereo not shown) [Example 88, (E, Z)-N′-cyano-N-(9-neopentyl-8-oxo-3,6,7,8,9,10-hexahydroazepino[3,4-e]indazol-7-yl)-4-(2-oxo-1,2-dihydroquinazolin-3(4H)-yl)piperidine-1-carboxamidine] | 0.1 to 10 nM
4 | O=C(C[C@@H]1Cc2cc(Cl)c3[nH]ncc3c2CN(CC(F)(F)F)C1=O)N1CCC(c2cc3cccnc3[nH]c2=O)CC1 [Example 89, (S)-4-chloro-7-(2-oxo-2-(4-(2-oxo-1,2-dihydro-1,8-naphthyridin-3-yl)piperidin-1-yl)ethyl)-9-(2,2,2-trifluoroethyl)-6,7,9,10-tetrahydroazepino[3,4-e]indazol-8(3H)-one] | 0.1 to 10 nM
5 | O=C(C[C@@H]1Cc2cc(Cl)c3[nH]ncc3c2CN(CC(F)(F)F)C1=O)N1CCC(c2cc3ccccc3[nH]c2=O)CC1 [Example 90, (S)-4-chloro-7-(2-oxo-2-(4-(2-oxo-1,2-dihydroquinolin-3-yl)piperidin-1-yl)ethyl)-9-(2,2,2-trifluoroethyl)-6,7,9,10-tetrahydroazepino[3,4-e]indazol-8(3H)-one] | 0.1 to 10 nM
6 | O=C(C[C@@H]1Cc2cc(Cl)c3[nH]ncc3c2CN(CC(F)(F)F)C1=O)N1CCC(c2cc3cccc(F)c3[nH]c2=O)CC1 [Example 91, (S)-4-chloro-7-(2-(4-(8-fluoro-2-oxo-1,2-dihydroquinolin-3-yl)piperidin-1-yl)-2-oxoethyl)-9-(2,2,2-trifluoroethyl)-6,7,9,10-tetrahydroazepino[3,4-e]indazol-8(3H)-one] | 0.1 to 10 nM
7 | CC(C)(C)CN1Cc2c(cc(Cl)c3[nH]ncc23)C[C@@H](CC(=O)N2CCC(C3=Cc4ccccc4NS3(=O)=O)CC2)C1=O [Example 92] | 10 to 100 nM
8 | CC(C)(C)CN1Cc2c(cc(Cl)c3[nH]ncc23)C[C@@H](CC(=O)N2CCC(c3ccc(Cl)cc3Cl)CC2)C1=O [Example 93, (S)-4-chloro-7-(2-(4-(2,4-dichlorophenyl)piperidin-1-yl)-2-oxoethyl)-9-neopentyl-6,7,9,10-tetrahydroazepino[3,4-e]indazol-8(3H)-one] | 100 to 1000 nM
9 | CC(C)(C)CN1Cc2c(cc(Br)c3[nH]ncc23)C[C@@H](CC(=O)N2CCC(c3cc4ccccc4[nH]c3=O)CC2)C1=O [Example 94, (S)-4-bromo-9-neopentyl-7-(2-oxo-2-(4-(2-oxo-1,2-dihydroquinolin-3-yl)piperidin-1-yl)ethyl)-6,7,9,10-tetrahydroazepino[3,4-e]indazol-8(3H)-one] | 0.1 to 10 nM
10 | CC(C)(C)CN1Cc2c(cc(Br)c3[nH]ncc23)C[C@@H](CC(=O)N2CCC(c3cc4cccc(F)c4[nH]c3=O)CC2)C1=O [Example 95, (S)-4-bromo-7-(2-(4-(8-fluoro-2-oxo-1,2-dihydroquinolin-3-yl)piperidin-1-yl)-2-oxoethyl)-9-neopentyl-6,7,9,10-tetrahydroazepino[3,4-e]indazol-8(3H)-one] | 10 to 100 nM
11 | O=C(C[C@@H]1Cc2cc(Br)c3[nH]ncc3c2CN(CC(F)(F)F)C1=O)N1CCC(c2cc3cccnc3[nH]c2=O)CC1 [Example 96, (S)-4-bromo-7-(2-oxo-2-(4-(2-oxo-1,2-dihydro-1,8-naphthyridin-3-yl)piperidin-1-yl)ethyl)-9-(2,2,2-trifluoroethyl)-6,7,9,10-tetrahydroazepino[3,4-e]indazol-8(3H)-one] | 0.1 to 10 nM
12 | O=C(C[C@@H]1Cc2cc(Br)c3[nH]ncc3c2CN(CC(F)(F)F)C1=O)N1CCC(c2cc3ccccc3[nH]c2=O)CC1 [Example 97, (S)-4-bromo-7-(2-oxo-2-(4-(2-oxo-1,2-dihydroquinolin-3-yl)piperidin-1-yl)ethyl)-9-(2,2,2-trifluoroethyl)-6,7,9,10-tetrahydroazepino[3,4-e]indazol-8(3H)-one] | 0.1 to 10 nM
13 | O=C(C[C@@H]1Cc2cc(Br)c3[nH]ncc3c2CN(CC(F)(F)F)C1=O)N1CCC(c2cc3cccc(F)c3[nH]c2=O)CC1 [Example 98, (S)-4-bromo-7-(2-(4-(8-fluoro-2-oxo-1,2-dihydroquinolin-3-yl)piperidin-1-yl)-2-oxoethyl)-9-(2,2,2-trifluoroethyl)-6,7,9,10-tetrahydroazepino[3,4-e]indazol-8(3H)-one] | 10 to 100 nM
14 | CC(C)(C)CN1Cc2c(cc(Cl)c3[nH]ncc23)C[C@@H](N/C(=N/C#N)N2CCC(c3cc4ccccc4[nH]c3=O)CC2)C1=O [Example 99] | 0.1 to 10 nM
15 | Cc1cc2c(c3cn[nH]c13)CN(CC(C)(C)C)C(=O)[C@H](CC(=O)N1CCC(c3cc4ccccc4[nH]c3=O)CC1)C2 [Example 100, (S)-4-methyl-9-neopentyl-7-(2-oxo-2-(4-(2-oxo-1,2-dihydroquinolin-3-yl)piperidin-1-yl)ethyl)-6,7,9,10-tetrahydroazepino[3,4-e]indazol-8(3H)-one] | 0.1 to 10 nM
16 | Cc1cc2c(c3cn[nH]c13)CN(CC(C)(C)C)C(=O)[C@H](CC(=O)N1CCC(c3cc4cccc(F)c4[nH]c3=O)CC1)C2 [Example 101, (S)-7-(2-(4-(8-fluoro-2-oxo-1,2-dihydroquinolin-3-yl)piperidin-1-yl)-2-oxoethyl)-4-methyl-9-neopentyl-6,7,9,10-tetrahydroazepino[3,4-e]indazol-8(3H)-one] | 10 to 100 nM
17 | Cc1cc2c(c3cn[nH]c13)CN(CC(F)(F)F)C(=O)[C@H](CC(=O)N1CCC(c3cc4ccccc4[nH]c3=O)CC1)C2 [Example 102, (S)-4-methyl-7-(2-oxo-2-(4-(2-oxo-1,2-dihydroquinolin-3-yl)piperidin-1-yl)ethyl)-9-(2,2,2-trifluoroethyl)-6,7,9,10-tetrahydroazepino[3,4-e]indazol-8(3H)-one] | 0.1 to 10 nM
18 | Cc1cc2c(c3cn[nH]c13)CN(CC(F)(F)F)C(=O)[C@H](CC(=O)N1CCC(c3cc4cccc(F)c4[nH]c3=O)CC1)C2 [Example 103, (S)-7-(2-(4-(8-fluoro-2-oxo-1,2-dihydroquinolin-3-yl)piperidin-1-yl)-2-oxoethyl)-4-methyl-9-(2,2,2-trifluoroethyl)-6,7,9,10-tetrahydroazepino[3,4-e]indazol-8(3H)-one] | 10 to 100 nM
19 | CC(C)c1cc2c(c3cn[nH]c13)CN(CC(C)(C)C)C(=O)[C@H](CC(=O)N1CCC(c3cc4ccccc4[nH]c3=O)CC1)C2 [Example 104, (S)-4-isopropyl-9-neopentyl-7-(2-oxo-2-(4-(2-oxo-1,2-dihydroquinolin-3-yl)piperidin-1-yl)ethyl)-6,7,9,10-tetrahydroazepino[3,4-e]indazol-8(3H)-one] | 10 to 100 nM
20 | CC(C)c1cc2c(c3cn[nH]c13)CN(CC(C)(C)C)C(=O)[C@H](CC(=O)N1CCC(c3cc4cccc(F)c4[nH]c3=O)CC1)C2 [Example 105, (S)-7-(2-(4-(8-fluoro-2-oxo-1,2-dihydroquinolin-3-yl)piperidin-1-yl)-2-oxoethyl)-4-isopropyl-9-neopentyl-6,7,9,10-tetrahydroazepino[3,4-e]indazol-8(3H)-one] | 10 to 100 nM
21 | CC(C)c1cc2c(c3cn[nH]c13)CN(CC(F)(F)F)C(=O)[C@H](CC(=O)N1CCC(c3cc4ccccc4[nH]c3=O)CC1)C2 [Example 106, (S)-4-isopropyl-7-(2-oxo-2-(4-(2-oxo-1,2-dihydroquinolin-3-yl)piperidin-1-yl)ethyl)-9-(2,2,2-trifluoroethyl)-6,7,9,10-tetrahydroazepino[3,4-e]indazol-8(3H)-one] | 10 to 100 nM
22 | CC(C)c1cc2c(c3cn[nH]c13)CN(CC(F)(F)F)C(=O)[C@H](CC(=O)N1CCC(c3cc4cccc(F)c4[nH]c3=O)CC1)C2 [Example 107, (S)-7-(2-(4-(8-fluoro-2-oxo-1,2-dihydroquinolin-3-yl)piperidin-1-yl)-2-oxoethyl)-4-isopropyl-9-(2,2,2-trifluoroethyl)-6,7,9,10-tetrahydroazepino[3,4-e]indazol-8(3H)-one] | 100 to 1000 nM
